Reference: patent publication US20120028837A1, “RAPID SCREEN FOR REPRODUCTIVE TOXICANTS” (PRESIDENT AND FELLOWS OF HARVARD COLLEGE, priority 2010, published 2012)

Test system: C. elegans germline
Details: in vivo, 4 days, 1 mM
Excerpt: Synapsis and recombination are tightly linked events during pachytene throughout various species, as it is only in the context of a fully assembled SC that crossover recombination can be completed. Indeed, in C. elegans, null mutants of SC components such as syp-1, syp-2, syp-3, syp-4 and him-3, increased levels of RAD-51 foci formation and delayed kinetics of foci turnover are observed during pachytene. Consequently, there is activation of the DNA damage checkpoint leading to increased germ cell apoptosis. Recombination is an essential and highly regulated process for the exchange of information that takes place during prophase I [18]. As nuclei exit mitosis and progress through meiosis, programmed meiotic DNA double strand breaks (DSBs) are formed and processed by several DNA repair proteins including RAD-51 [25, 48]. RAD-51 levels vary greatly during progression through prophase I as it is loaded onto DNA during the process of strand invasion and is removed as DSBs repair progresses. […] As unrepaired recombination intermediates can trigger a DNA-damage checkpoint during pachytene leading to increased germ cell apoptosis, the number of apoptotic nuclei following BPA exposure was measured by Syto-12 staining. […]
Rad-51 Time Course Analysis. The number of RAD-51 foci and their kinetics throughout the seven zones was assessed as described in [25]. […]

For `CC(C)(c1ccc(O)cc1)c1ccc(O)cc1` [BPA, Bisphenol A], the “RAD-51 foci in late pachytene (zones 6 and 7)” value was “elevated number of RAD-51 foci”.
